In US10478437B2, “Combination therapy to enhance the anticancer efficacy of platinum drugs” (University of Pittsburgh-of the Commonwealth System of …, priority 2014, dated 2019):

Assays:
Assay type in all cases: cell-based, human
[1] = tested on: A2780cis cells; assay: Extracellular flux analysis, oxygen consumption rate (OCR), Seahorse XF24; details: compound 50 μM + cisplatin 50 μM, 4 h, FIG. 8B; in words
Protocol: Oxygen consumption rate (OCR) and extracellular acidification rate (ECAR) were measured as previously described (Qian and Van Houten, 2010). Cells were seeded in XF24 cell culture plates at 4×10^4 cells/well and incubated in 5% CO2 at 37° C. Prior to the analysis, cells were washed and growth medium was replaced with bicarbonate-free modified RPMI 1640 medium, the “assay medium” (Molecular Devices, Sunnyvale, Calif.). Cells were then incubated for another 60 min in a 37° C. incubator without CO2. OCR and ECAR measurements were then performed simultaneously using a Seahorse XF24 Extracellular Flux Analyzer (Seahorse Bioscience, North Billerica, Mass.).
To determine the effects of the compounds on DNA damage and mitochondrial dysfunction, A2780cis cells were treated with cisplatin (20 μM) alone or the combination of cisplatin with 20 μM of compound 1-6. Replication protein A (RPA) is a single strand-specific DNA-binding protein, consisting of three subunits, RPA70, RPA32, and RPA14. RPA32 is phosphorylated in response to DNA replication stress. Western blot analysis was performed to evaluate the phosphorylation of RPA32 and histone H2AX, the induction of Noxa expression and cleavage of caspase-3. […] The oxygen consumption rate (OCR) was measured by a Seahorse extracellular flux analyzer.

[2] = tested on: cisplatin-resistant ovarian cancer cell line A2780cis; assay: CellTiter-Blue cell viability assay, compound alone or with cisplatin or carboplatin, 24 h; details: for Combination Index: CompuSyn software
Summary of the method: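 A2780cis cells received compound at 10, 20 or 50 μM, alone or with cisplatin or carboplatin, for 24 h before CellTiter-Blue viability read-out. Data are mean±SD, combinations vs compound alone compared by Student's t test (P<0.05), and combination index computed by the Chou method.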

[3] = tested on: A2780cis cells; assay: Short-term (3 h) exposure, cell survival by CellTiter-Blue after 48 h in compound free media; details: 20 μM compound with various doses of cisplatin, viability after two days, in words
Protocol: FIG. 5. Short-term exposure of A2780cis cells to the combination of cisplatin and compound 1-6 dramatically reduces cell survival. A2780cis cells were treated with increasing doses of cisplatin alone or the combination of cisplatin with compound 1-6 (20 μM) for 3 h. The compounds were then washed out. Cell survival was determined after 48 h incubation of cells in compound free media by CellTiter-Blue assay.
Further analysis was performed with compound 1-6. […] This synergism for the combination of cisplatin and 1-6 was further confirmed using a fresh sample of high chemical purity (98%). This synergistic effect was also observed using the CellTiter-Blue cell viability assay (FIG. 5) under an alternative exposure strategy that mimics in viva drug administration to test the combination effect. Considering the clearance of cisplatin over the time and the duration of exposure of tumor cells to the effective doses of the drugs in vivo (Los et al., 1989), a short-term exposure of cells to the combination of 20 μM of 1-6 with various doses of cisplatin was tested, followed by cell viability assay after two days.

[4] = tested on: A2780cis cells; assay: Western blot of caspase/PARP cleavage, Noxa induction, RPA32 and H2AX phosphorylation; details: compound 20 μM + cisplatin 20 μM
Protocol: (§1) Whole cell lysate was prepared by lysing cells in cell lysis buffer (Cell signaling technology) containing complete protease inhibitor (Roche). Cell lysates were then cleared at 15,000 rpm for 15 min at 4° C. The protein content was quantified using a Bio-Rad Protein Assay kit (Bio-Rad Laboratories, Hercules, Calif.). The equal amount of protein was separated on Tris-glycine gels (Invitrogen). The separated proteins were blotted onto a polyvinylidene difluoride membrane and blocked overnight at 4° C. in phosphate-buffered saline containing 0.1% Tween 20 and 10% nonfat dry milk (blocking buffer). Membranes were incubated with primary antibodies in blocking buffer overnight at 4° C. Primary antibodies used were: β-actin from Sigma; Bax, Bak, Caspase-9 and cleaved Caspase-3 from Cell Signaling Technology; phospho-Histone H2AX (Ser 139) and Noxa from Millipore. Membranes were then washed and incubated in peroxidase conjugated anti-rabbit IgG (Sigma) or anti-mouse IgG (Sigma) secondary antibody for 1 h at room temperature. Membranes were developed using SuperSignal West Femto Maximum Sensitivity Substrate (Thermo Fisher Scientific).
A2780cis cells were treated with cisplatin alone, compounds alone or in combination with cisplatin at indicated concentrations for 20 h to analyze apoptotic cell death in response to treatment. […] Expression and cleavage of several major caspases (Caspase-8, Caspase-9 and Caspase-3), as well as poly(ADP-ribose) polymerase (PARP) and NOXA. A2780cis cells were treated with cisplatin (20 μM) alone, compounds (20 μM) alone or in combination with cisplatin for 20 h.
To determine the effects of the compounds on DNA damage and mitochondrial dysfunction, A2780cis cells were treated with cisplatin (20 μM) alone or the combination of cisplatin with 20 μM of compound 1-6. Replication protein A (RPA) is a single strand-specific DNA-binding protein, consisting of three subunits, RPA70, RPA32, and RPA14. RPA32 is phosphorylated in response to DNA replication stress. Western blot analysis was performed to evaluate the phosphorylation of RPA32 and histone H2AX, the induction of Noxa expression and cleavage of caspase-3. […] A2780cis cells were treated with cisplatin (50 μM) alone, 1-6 (50 μM) alone or the combination of cisplatin and compound 1-6 for 4 h. The oxygen consumption rate (OCR) was measured by a Seahorse extracellular flux analyzer.

[5] = tested on: PEO4, SKOV3, H1299, MDA-MB-231, Ca133 cells; assay: Western blot of PARP and Caspase-3 cleavage in other cisplatin-resistant cancer cells; details: 20 h, FIG. 9, in words
Protocol: FIG. 9. The combination of cisplatin and compound 1-6 triggers extensive apoptosis in various types of cisplatin- and multidrug-resistant tumor cells. Cisplatin-resistant cancer cells PEO4 (ovarian), SKOV3 (ovarian), H1299 (lung), MDA-MB-231 (breast), Ca133 (head & neck) were treated with DMSO (untreated), cisplatin (20 μM) alone, compound 1-6 (20 μM) alone, or the combination for 20 h. Cleavage of PARP and Caspase-3 were determined by western blot.
as §1
To evaluate whether the synergistic effects of the disclosed compounds and cisplatin could be extended to other types of cancer cells, breast cancer cells (MDA-MB-231), non-small cell lung carcinoma cells (H-1299), ovarian cancer cells (PEO4 and SKOV3) and head and neck cancer cells (Ca133) were treated with various combinations of cisplatin and compound 1-6 and analyzed for Caspase-3.

[6] = compound 10 μM with cisplatin (20 μM)
[7] = compound 20 μM with cisplatin (20 μM)
[8] = compound 50 μM with cisplatin (20 μM)

With `CCOCCCn1c(=S)[nH]c2c(C)cccc2c1=O` [Compound 1-6] the “mitochondrial function (OCR, response to oligomycin) after combination with cisplatin” value [1] was “uncoupling of mitochondria was observed”, the “cell viability after combination with carboplatin compared to carboplatin alone” value ([2]; 24 h, FIG. 6, in words) was “cell viability was reduced” and the viability at 10 µM ([2]; Homo sapiens, A2780cis, compound 10 μM, 24 h, untreated cells = 100%, read-out: survival (%) of cells with compound alone) was 98.9 ± 3.1%. For the same compound, the viability at 20 µM ([2]; Homo sapiens, A2780cis, compound 20 μM, 24 h, untreated cells = 100%, read-out: survival (%) of cells with compound alone) was 95.4 ± 4.2%, the viability at 50 µM ([2]; Homo sapiens, A2780cis, compound 50 μM, 24 h, untreated cells = 100%, read-out: survival (%) of cells with compound alone) was 93.7 ± 4.4% and the “Survival (%) of cells with compound and carboplatin (200 μM)” value (from here on “Survival (%) of cells … (200 μM)”) ([2]; compound 10 μM + carboplatin 200 μM, 24 h) was 64.5 ± 2.7%. For the same compound, the “survival (%) of cells with compound and cisplatin (20 μM)” value (“survival (%) of cells … (20 μM)” for short) ([2]; compound 10 μM + cisplatin 20 μM, 24 h) was 58.8 ± 1.5%, the “Grading (of combination index)” value [2, 6] was “Synergism” and the “Combination Index” value [2, 6] was 0.67. For the same compound, the “potency at enhancing the cytotoxicity of cisplatin compared to mdivi-1” value ([2]; compound 10 μM with cisplatin, FIG. 4, in words) was “more potent than mdivi-1”, the “Survival (%) of cells … (200 μM)” value ([2]; compound 20 μM + carboplatin 200 μM, 24 h) was 48.0 ± 3.0% and the “survival (%) of cells … (20 μM)” value ([2]; compound 20 μM + cisplatin 20 μM, 24 h) was 28.0 ± 1.6%. The “Grading (of combination index)” value [2, 7] was “Strong”, the “Combination Index” value [2, 7] was 0.24 and the “Survival (%) of cells … (200 μM)” value ([2]; compound 50 μM + carboplatin 200 μM, 24 h) was 2.5 ± 0.4%. For the same compound, the “survival (%) of cells … (20 μM)” value ([2]; compound 50 μM + cisplatin 20 μM, 24 h) was 1.5 ± 0.6%, the “Grading (of combination index)” value [2, 8] was “Very strong” and the “Combination Index” value [2, 8] was 0.01. The “effect of 3 hr exposure to the combination with cisplatin on proliferation” value [3] was “severe long-term proliferation defect”, the “cleavage of caspases and PARP, induction of Noxa in combination with cisplatin” value ([4]; 20 h, FIG. 7B, in words) was “cleavage of Caspase-8, 9, 3, PARP and the induction of Noxa” and the “time of enhanced phosphorylation of RPA32 post treatment, combination with cisplatin” value ([4]; FIG. 8A) was no more than 4 h. For the same compound, the “cell death after single compound exposure” value ([5]; 20 μM alone) was “minimal effect in inducing cell death” and the “cleavage of Caspase 3 and PARP, combination with cisplatin” value ([5]; compound 20 μM + cisplatin 20 μM) was “cleavage of Caspase 3 and PARP was observed”.
